Assay results from PubChem BioAssay AID602464 (Sanford-Burnham Center for Chemical Genomics, 2012).
The source made the active and inactive calls. No stated cut-off is given here; in the data, active means IC50 below about 20 µM; inactive means the rest.

System: Gli-responsive luciferase reporter cells, SUFU pathway antagonism
Assay: blockers of Gli reporter signaling – cell-based, luciferase luminescence, uHTS hits, dose response (AID 602464)

Row | Structure (SMILES) | IC50
1 | COc1cc(C(=O)NC2CCN(C)CC2)ccc1Nc1ncc2c(n1)N(CCc1ccccc1)CCC(=O)N2C | 4.62 µM
2 | COc1ccccc1CN(Cc1nc2ccccc2c(=O)[nH]1)S(=O)(=O)c1ccc(C)cc1 | > 20 µM (inactive)
3 | Cc1ccc(C)c(N2CC(O)(c3cccs3)[N+]3=C2CCCC3)c1 (stereo not given) | 10.4 µM
4 | Nc1nc2ccccc2n1/N=C/c1ccc([N+](=O)[O-])s1 | 6.42 µM
5 | CCCCN(C(C)=O)c1ccc2c(c1)C1CC2CCN1C(=O)OCc1ccccc1 (stereo not given) | 6.13 µM
6 | CCOC(=O)c1c(NC(=O)COc2ncnc3ccccc23)sc(C(C)=O)c1C | 10.1 µM
7 | Brc1ccc(-c2c[n+]3c(n2-c2ccccc2)SCC3)cc1 | 6.98 µM
8 | O=C(Cn1c(-c2ccccc2)c[n+]2ccsc12)c1ccc(Br)cc1 | > 20 µM (inactive)
9 | O=C(c1cccc(S(=O)(=O)N2CCN(c3ccccc3)CC2)c1)N1CCCC(C(F)(F)F)C1 (stereo not given) | 8.01 µM
10 | c1ccc(-c2c[n+]3c(n2-c2ccccc2)SCC3)cc1 | 9.72 µM
11 | Cc1c(C(C)C)c(=O)n(-c2ccc(S(=O)(=O)NC3CCCCC3)cc2)n1C | 4.15 µM
12 | CC1Cc2cc(S(=O)(=O)N3CCC(C(=O)N4CCN(c5ccccc5F)CC4)CC3)ccc2N1C(=O)C1CC1 (stereo not given) | 4.27 µM
13 | Cc1sc2ncnc(NCC3COc4ccccc4O3)c2c1C (stereo not given) | 5.17 µM
14 | NC(=O)c1ccccc1OCC(=O)N1CCC(Cc2ccccc2)CC1 | 5.61 µM
15 | CCOC(CN=c1nc(N(C)C)ss1)OCC | > 20 µM (inactive)
16 | O=C(Nc1nc(-c2cccs2)cs1)c1cccc(S(=O)(=O)N2CCCCCC2)c1 | 2.28 µM
17 | Cc1cc(C)nc(SCC(=O)Nc2ccc(N3CCOCC3)c(Cl)c2)n1 | 3.52 µM
18 | O=C(N[C@H]1C/C=C\C[C@@H](CC(=O)N(CCO)Cc2ccccc2)C(=O)NC[C@H](c2ccccc2)OC1=O)OCC1c2ccccc2-c2ccccc21 | 7.18 µM
19 | Clc1ccc(-c2cn(-c3ccc(Cl)cc3)c3[n+]2CCCCC3)cc1 | 6.44 µM
20 | Cc1nnsc1C(=O)Nc1ccc(S(=O)(=O)N2CCC(C)CC2)cc1 | > 20 µM (inactive)
21 | Cc1ccc2c(c1)c(C)cc[n+]2Cc1ccccc1 | 8.76 µM
22 | Cc1cc(C)nc(/N=C(\N)Nc2ccccc2-c2ccccc2)n1 | 12.8 µM
23 | COc1ccc(-n2cc(-c3ccc(OC(F)F)cc3)[n+]3c2CCCCC3)cc1 | 2.29 µM
24 | CC(C)n1c(-c2ccco2)csc1=Nc1cccnc1 | 8.01 µM
25 | COc1ccccc1-c1c(-c2ccc(O)cc2O)n[nH]c1C(F)(F)F | 4.86 µM
26 | Cc1ccc(OCCN2CCN(c3ncnc4sc(C)c(C)c34)CC2)cc1 | 2.9 µM
27 | C[N+]1(CC(=O)OC2CCCCCCCCCCC2)CCCC1 | 19.3 µM

Row | Structure (SMILES) | IC50
28 | COc1ccccc1NS(=O)(=O)c1cccc(C(=O)NC2CCN(Cc3ccccc3)CC2)c1 | > 20 µM (inactive)
29 | Cc1c(C(C)C)c(=O)n(-c2ccc(S(=O)(=O)NCc3ccccc3)cc2)n1C | 3.84 µM
30 | O=C(N[C@@H]1C/C=C\C[C@H](CC(=O)N(CCO)Cc2ccccc2)C(=O)N[C@@H](Cc2c[nH]c3ccccc23)COC1=O)OCC1c2ccccc2-c2ccccc21 | 10.9 µM
31 | C=CCNC(=S)/N=c1/ccccn1Cc1ccccc1 | 11.9 µM
32 | C[n+]1c2n(c3ccccc31)N=C(c1ccccc1)CS2 | 6.49 µM
33 | N=c1c(-c2nc3ccccc3[nH]2)cc(C(=O)c2ccco2)nn1-c1ccccc1 | > 20 µM (inactive)
34 | Clc1ccc(-c2c[n+](Cc3ccc(Cl)cc3Cl)c3n2CCCCC3)cc1 | 5.31 µM
35 | O=c1c2ccccc2nc2n1C(CSCc1cccc(C(F)(F)F)c1)CS2 (stereo not given) | 3.92 µM
36 | CC(=O)c1ccc(-n2cc(-c3ccc(C(C)(C)C)cc3)[n+]3c2SCCC3)cc1 | 9.87 µM
37 | CC(C)=CCC/C(C)=C/CNC(=O)C[C@H]1C[C@H](C(=O)N2CCOCC2)[C@@]2(C)c3[nH]c4cc(CCC(=O)N(C)C)ccc4c3CCN2C1=O | 4.63 µM
38 | Cc1nc2ccccc2c2c1CC(C(C)(Cl)Br)O2 (stereo not given) | 5.82 µM
39 | O=C(Cn1cc(C(=O)c2ccco2)c2ccccc21)Nc1ccccc1F | 4.27 µM
40 | Cc1cc(-c2ccccc2)cc(-c2ccccc2)[n+]1C | 4.46 µM
41 | CCCCCCCOc1ccc(OC(=O)c2ccncc2)cc1 | 0.954 µM
42 | CC(C)C[C@H]1CN=C(N(C)C)N1CCCCc1ccccc1 | 7.93 µM
43 | CCCCc1ccc(NC(=O)C(=O)NCCN2CCN(Cc3ccc([N+](=O)[O-])cc3)CC2)cc1 | 8.33 µM
44 | C(#Cc1ccccc1)C[N+]1(CC#Cc2cccc3ccccc23)CCCC1 | 3.6 µM
45 | Cc1ccsc1CNc1ncnc2ccc(-c3c(C)noc3C)cc12 | 4.5 µM
46 | CCN1C(=O)CCN(C2CCCC2)c2nc(Nc3ccc(C(=O)NC4CCN(C)CC4)cc3OC)ncc21 | 3.45 µM
47 | Cc1cc(C)c(C(N)=O)c(SCC(=O)c2cc(C)n(-c3cc(C)on3)c2C)n1 | 4.78 µM
48 | COc1nnc(-c2ccc(N3CCCCC3)c(N)c2)c2ccccc12 | 9.11 µM
49 | Cc1ccc2c(c1)S/C(=C/c1ccc[n+](C)c1)N2CCO | 15.2 µM
50 | COc1ccc(NS(=O)(=O)c2ccc(N3CCOCC3)c(N)c2)cc1 | 5.16 µM
51 | COc1ccccc1CCNC(=O)c1cc(-c2ccncc2)nc2ccc(Br)cc12 | > 20 µM (inactive)
52 | CN1/C(=C\C(=O)COC(=O)CNC(=O)c2ccc3ccccc3c2)C(C)(C)c2ccccc21 | 9.73 µM
53 | COc1cccc(/C=C/c2ccncc2)c1OC | 8.95 µM
54 | COc1ccc(C2=[N+](C)CCn3cccc32)c(OC)c1 | 10.2 µM

Row | Structure (SMILES) | IC50
55 | S=C(Nc1ccccc1)N1CCC(Cc2ccccc2)CC1 | 5.67 µM
56 | Cc1cc(C)c(C)c(S(=O)(=O)N2CCN(c3ncnc4ccccc34)CC2)c1C | 4.6 µM
57 | Cc1cccc(CCN2C(N(C)C)=NC[C@@H]2CC(C)C)c1 | 10.3 µM
58 | Cc1ncoc1C(=O)NC1CCCc2c1cnn2-c1ccc(C(C)(C)C)cc1 (stereo not given) | 7.46 µM
59 | CCCCOc1ncnc2c1[nH]c1ccc(F)cc12 | 4.85 µM
60 | Cc1c(CCOC(=O)C23CC4CC(CC(C)(C4)C2)C3)sc[n+]1Cc1ccccc1 | > 20 µM (inactive)
61 | CCn1c(=NC(=O)CCS(=O)(=O)c2ccccc2)sc2cccc(OC)c21 | 3.11 µM
62 | COc1ccc(NS(=O)(=O)c2ccc(NC(C)=O)cc2)cc1OC | 7.92 µM
63 | Cc1ccc(OCCOC(=O)c2cc(S(=O)(=O)N3CCCCC3)ccc2N2CCOCC2)cc1 | > 20 µM (inactive)
64 | CCCCOCCCNc1ncnc2c1[nH]c1ccccc12 | 3.17 µM
65 | COc1ccc(CNc2ncnc3c2[nH]c2ccccc23)cc1 | 2.79 µM
66 | O=C(c1cnc(N2CCN(c3ccccn3)CC2)c2ccccc12)N1CCN(c2cccc(Cl)c2)CC1 | 11.4 µM
67 | CC(=O)Nc1ccc(S(=O)(=O)N(Cc2ccccc2)C(C)C)cc1 | 8.29 µM
68 | CCCCCCCN1C2=NCCCN2c2ccccc21 | 11.4 µM
69 | O=C(NCCc1cccc(Cl)c1)c1ccc(OC2CCN(Cc3ccccn3)CC2)cc1 | 7.72 µM
70 | COc1ccc(Cn2c(-c3ccc(Cl)cc3)c[n+]3ccccc23)cc1 | 7.28 µM
71 | CC(=O)c1ccc(N2CCN(c3ccc(C(F)(F)F)cn3)CC2)cc1 | 8.99 µM
72 | O=C(C[C@@H]1C/C=C\C[C@@H](NC(=O)OCC2c3ccccc3-c3ccccc32)C(=O)OC[C@@H](Cc2ccccc2)NC1=O)NCCO | 10 µM
73 | CCCCn1c(SCc2c(C)noc2C)nc2cc(S(N)(=O)=O)ccc21 | 4.21 µM
74 | Fc1ccc(-n2nnnc2-c2cnc(-c3cccs3)nc2C(F)(F)F)cc1 | 6.43 µM
75 | Cc1nc2cc(N3CCN(C)CC3)c(NC(=O)Cc3ccccc3)cc2c(=O)n1Cc1ccccc1 | 12.3 µM
76 | C=CCn1c(O)c(N=NC(=S)Nc2cccc(C)c2)c2ccccc21 | 8.58 µM
77 | O=C(Cn1cc(C(=O)C2CC2)c2ccccc21)Nc1ccccc1Cl | 11.2 µM
78 | CC1CCN(c2c(NCc3ccc(C(=O)N4c5ccccc5CC4C)cc3)c(=O)c2=O)CC1 (stereo not given) | 5.18 µM
79 | Cn1nc(CC(=O)NCc2ccc(C(F)(F)F)cc2)c2ccccc2c1=O | 6.65 µM
80 | O=C(c1ccc(C(F)(F)F)cc1)C1CCCN(Cc2ccncc2)C1 (stereo not given) | 5.26 µM
81 | Brc1ccc(-c2csc(N3CCCCCC3)n2)cc1 | 1.02 µM

Row | Structure (SMILES) | IC50
82 | CCOc1ccc(NS(=O)(=O)c2cccc(C(=O)N3CCN(C/C=C/c4ccccc4)CC3)c2)cc1 | > 20 µM (inactive)
83 | CC(C)C(=O)N1CCN(c2ccccc2NC(=O)COc2ccccc2)CC1 | > 20 µM (inactive)
84 | CCCCOc1ccc(N2C(N)=NC(N)=NC23CCCCC3)cc1 | 17.1 µM
85 | Clc1ccc(-n2cc(-c3ccc(Br)cc3)[n+]3c2CCCCC3)cc1 | 7.04 µM
86 | O=C(C[C@@H]1C/C=C\C[C@H](NC(=O)OCC2c3ccccc3-c3ccccc32)C(=O)OC[C@H]2CCCN2C1=O)N[C@H](CO)Cc1ccccc1 | 6.71 µM
87 | CCc1nc(N)nc(N)c1-c1ccc(N(C)Cc2ccccc2)c([N+](=O)[O-])c1 | 1.57 µM
88 | CNc1ccccc1C(C)(C)c1cc(-c2cccc(Br)c2)no1 | 2.02 µM
89 | c1ccc(Cn2c(-c3ccccc3)c[n+]3c2SCCC3)cc1 | 6.59 µM
90 | O=c1c2ccccc2sc2c(CO)ccc(NCCN3CCCCC3)c12 | > 20 µM (inactive)
91 | O=C(Nc1cccc(C(F)(F)F)c1)C1CCN(S(=O)(=O)c2ccc(N3CCCC3=O)cc2)CC1 | 5.45 µM
92 | O=C(Nc1cc(N2CCCCC2)ncn1)c1ccccc1 | 0.294 µM
93 | COc1cc(C(=O)NC2CCN(C)CC2)ccc1Nc1ncc2c(n1)N(Cc1ccccc1)CCC(=O)N2C | 1.28 µM
94 | CCOc1ccc(-n2c(O)c(/C=N/Nc3nc(C)cc(C)n3)c3ccccc3c2=O)cc1 | 7.13 µM
95 | C[n+]1c2n(c3ccccc31)N=C(c1ccc(-c3ccccc3)cc1)CS2 | 1.32 µM
96 | Cc1cc(NC(=O)CSc2nc3c([nH]c4ccccc43)c(=O)n2-c2ccccc2F)no1 | 13.8 µM
97 | Cn1c(=O)c2c(nc(NCc3ccco3)n2Cc2ccc(Cl)cc2Cl)n(C)c1=O | 0.647 µM
98 | CC1CCCCC1NS(=O)(=O)c1ccc(S(=O)(=O)NCc2ccncc2)cc1 (stereo not given) | 5.58 µM
99 | COCCn1c(CN2CCC(Cc3ccccc3)CC2)nc2c1c(=O)n(C)c(=O)n2C | 4.08 µM
100 | Clc1ccc(-c2cn(-c3ccccc3)c3[n+]2CCS3)cc1 | 16.9 µM
101 | N=c1c2c(n(Cc3ccc(F)cc3)c3c1CCC3)CCCC2 | 3.82 µM
102 | O=C(NC(c1cccnc1)C(F)(F)F)c1cc(COc2ccc3c(c2)CCCC3)on1 (stereo not given) | 10.6 µM
103 | O=C(c1cc2sccc2n1Cc1ccccc1)N1CCN(c2nc3ccccc3s2)CC1 | 4.67 µM
104 | Cc1nn(-c2ccc(NC(=O)c3ccncc3)cc2)c(C)c1Cl | 9.25 µM
105 | COc1ccc(NS(=O)(=O)c2ccc(N3CCN(CCO)CC3)c([N+](=O)[O-])c2)cc1 | 8.77 µM
